Data on 26 compounds can be found in patent publication US20220233512A1, “INHIBITING AN IMMUNE RESPONSE MEDIATED BY ONE OR MORE OF TLR2, RAGE, CCR5, CXCR4 AND CD4” (priority 2020, published 2022).

The target of the assay is T1, mu opiate receptor (MOR) (Rattus norvegicus, UniProt P33535).
T1 construct: from tissue; host or cells: striatum (membrane preparation)
Description: MOR agonist activity using [35S]GTPgS binding assay in striatal membranes. Details: MOR agonist activity (preliminary study): unit of the concentration uncertain. The following applies: for MOR agonist activity (preliminary study): average of two runs. It counts as biochemical. The procedure: To assess the mu opiate receptor (MOR) agonist activity of positive compounds from the FLNA screening, compounds were tested in a [^35S]GTPgS binding assay using striatal membranes. […] This assay measures a functional consequence of receptor occupancy at one of the earliest receptor-mediated events. The assay permits for traditional pharmacological parameters of potency, efficacy and antagonist affinity, with the advantage that agonist measures are not subjected to amplification or other modulation that may occur when analyzing parameters further downstream of the receptor.
Thus, striatal tissue was homogenized in 10 volumes of ice cold 25 mM HEPES buffer, pH 7.4, which contained 1 mM EGTA, 100 mM sucrose, 50 mg/ml leupeptin, 0.04 mM PMSF, 2 mg/ml soybean trypsin inhibitor and 0.2% 2-mercaptoethanol. The homogenates were centrifuged at 800×g for 5 minutes and the supernatants were centrifuged at 49,000×g for 20 minutes. The resulting pellets were suspended in 10 volume of reaction buffer, which contained 25 mM HEPES, pH 7.5, 100 mM NaCl, 50 mg/ml leupeptin, 2 mg/ml soybean trypsin inhibitor, 0.04 mM PMSF and 0.02% […].
The resultant striatal membrane preparation (200 mg) was admixed and maintained (incubated) at 30° C. for 5 minutes in reaction buffer as above that additionally contained 1 mM MgCl2 and 0.5 nM [^35S]GTPgS (0.1 mCi/assay, PerkinElmer Life and Analytical Sciences) in a total volume of 250 ml and continued for 5 minutes in the absence or presence of 0.1-10 mM of an assayed compound of interest. The reaction was terminated by dilution with 750 ml of ice-cold reaction buffer that contained 20 mM MgCl2 and 1 mM EGTA and immediate centrifugation at 16,000×g for 5 minutes.
The resulting pellet was solubilized by sonicating for 10 seconds in 0.5 ml of immunoprecipitation buffer containing 0.5% digitonin, 0.2% sodium cholate and 0.5% NP-40. Normal rabbit serum (1 ml) was added to 1 ml of lysate and incubated at 25° C. for 30 minutes. Nonspecific immune complexes were removed by incubation with 25 ml of protein A/G-conjugated agarose beads at 25° C. for 30 minutes followed by centrifugation at 5,000×g at 4° C. for 5 minutes. The supernatant was divided and separately incubated at 25° C. for 30 minutes with antibodies raised against Gao proteins (1:1,000 dilutions).
The immunocomplexes so formed were collected by incubation at 25° C. for 30 minutes with 40 ml of agarose-conjugated protein A/G beads and centrifugation at 5,000×g at 4° C. for 5 minutes. The pellet was washed and suspended in buffer containing 50 mM Tris-HCl, pH 8.0, and 1% NP-40. The radioactivity in the suspension was determined by liquid scintillation spectrometry. […] DAMGO (1 or 10 mM) was used as a positive control.
(In general: Binding of GTPγS marks nucleotide exchange on a G protein.)

Setting [1] is: 0.1 μM compound as agonist, Series C-2 table.
[2] abbreviates: 1 μM compound as agonist, Series C-2 table.
[3] abbreviates: 0.1 (unit uncertain) compound as agonist.
Where [4] appears, read: 1 (unit uncertain) compound as agonist.
The mark [5] stands for this setting: 0.1 μM compound as agonist, Series C-1 table.
The mark [6] stands for this setting: 1 μM compound as agonist, Series C-1 table.

T1 sequence (P33535 whole entry): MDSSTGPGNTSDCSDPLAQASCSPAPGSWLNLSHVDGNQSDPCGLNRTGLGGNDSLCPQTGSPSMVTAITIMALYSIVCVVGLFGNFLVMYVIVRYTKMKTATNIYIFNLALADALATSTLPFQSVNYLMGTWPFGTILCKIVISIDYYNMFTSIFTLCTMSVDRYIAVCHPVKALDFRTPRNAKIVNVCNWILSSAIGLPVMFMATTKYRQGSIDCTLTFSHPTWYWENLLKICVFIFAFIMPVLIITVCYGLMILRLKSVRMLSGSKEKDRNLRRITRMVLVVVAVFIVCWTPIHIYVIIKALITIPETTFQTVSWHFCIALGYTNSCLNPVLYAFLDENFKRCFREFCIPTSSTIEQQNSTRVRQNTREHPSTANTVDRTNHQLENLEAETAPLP

Consider `O=C1CN(C2CCc3ccccc3C2)C2(CCN(S(=O)(=O)c3ccccc3)CC2)N1` (stereo not drawn) [C0136M/ (P5)], for which the “MOR agonist activity ([35S]GTPgS binding to Gao)” value by setting is: under setting [1], 176.8%; (1 μM + BFNA, Series C-2 table) 74.5%; under setting [2], 237.3%.

As for `O=C1CN(Cc2ccccc2)C2(CCN(C3CCCCC3)CC2)N1` [C0137M P7], the “MOR agonist activity ([35S]GTPgS binding to Gao)” value worked out at 180.8% under setting [1]; 55.8% (1 μM + BFNA, Series C-2 table); 193.8% under setting [2].

Turning to `O=S(=O)(c1ccc(OC(F)(F)F)cc1)N1CCOC12CCN(CC1CC1)CC2` [Compound 4], the “MOR agonist activity (preliminary study)” value (1 mM + bNFA) was found to be 49.5%, the “MOR agonist activity (preliminary study)” value under setting [3] was 133.9% and the “MOR agonist activity (preliminary study)” value under setting [4] amounted to 165.2%.

Turning to `Cc1ccc(S(=O)(=O)N2CCOC23CCN(CC2CCC2)CC3)cc1` [Compound 9], the “MOR agonist activity (preliminary study)” value (1 mM + bNFA) was found to be 56.6%, the “MOR agonist activity (preliminary study)” value under setting [3] stood at 156.6% and the “MOR agonist activity (preliminary study)” value under setting [4] is given as 197.2%.

`C=CCN1CCC2(CC1)OCCN2S(=O)(=O)c1ccc(C)cc1` [Compound 10]: the “MOR agonist activity (preliminary study)” value runs as follows: (1 mM + bNFA) 60.4%; under setting [3], 163.1%; under setting [4], 191.8%.

As for `COc1ccc(S(=O)(=O)N2CCC3(CC2)OCCN3S(=O)(=O)c2ccc(OC)cc2)cc1` [Compound 7866], the “MOR agonist activity ([35S]GTPgS binding to Gao)” value came to 152.3% under setting [5]; 62.4% (1 μM + BFNA, Series C-1 table); 308.2% under setting [6].

For `Cc1ccc(S(=O)(=O)N2CCC3(CC2)OCCN3S(=O)(=O)c2ccc(C)cc2)cc1` [Compound C0001], the “MOR agonist activity ([35S]GTPgS binding to Gao)” value was found to be 129.3% under setting [5]; 33.9% (1 μM + BFNA, Series C-1 table); 184.3% under setting [6].

For `COc1cccc(S(=O)(=O)N2CCC3(CC2)OCCN3S(=O)(=O)c2cccc(OC)c2)c1` [Compound C0002], the “MOR agonist activity ([35S]GTPgS binding to Gao)” value under setting [5] worked out at 88.4%; the “MOR agonist activity ([35S]GTPgS binding to Gao)” value (1 μM + BFNA, Series C-1 table) turned out to be 3.9%; the “MOR agonist activity ([35S]GTPgS binding to Gao)” value under setting [6] was 93.8%.

As to `COc1ccccc1S(=O)(=O)N1CCC2(CC1)OCCN2S(=O)(=O)c1ccccc1OC` [Compound C0003], the “MOR agonist activity ([35S]GTPgS binding to Gao)” value was 162.3% under setting [5]; 107.7% (1 μM + BFNA, Series C-1 table); 215.9% under setting [6].

For the compound `N#Cc1ccccc1S(=O)(=O)N1CCC2(CC1)OCCN2S(=O)(=O)c1ccccc1C#N` [Compound C0004], the “MOR agonist activity ([35S]GTPgS binding to Gao)” value was found to be 122.0% under setting [5]; 65.8% (1 μM + BFNA, Series C-1 table); 228.4% under setting [6].

On to `O=S(=O)(c1cccc(OC(F)(F)F)c1)N1CCC2(CC1)OCCN2S(=O)(=O)c1cccc(OC(F)(F)F)c1` [Compound C0005], for which the “MOR agonist activity ([35S]GTPgS binding to Gao)” value is, setting by setting: under setting [5], 180.4%; (1 μM + BFNA, Series C-1 table) 166.4%; under setting [6], 227.2%.

Regarding `O=S(=O)(c1ccc(OC(F)(F)F)cc1)N1CCC2(CC1)OCCN2S(=O)(=O)c1ccc(OC(F)(F)F)cc1` [Compound C0006], the “MOR agonist activity ([35S]GTPgS binding to Gao)” value under setting [5] is recorded as 121.5%; the “MOR agonist activity ([35S]GTPgS binding to Gao)” value (1 μM + BFNA, Series C-1 table) came to 4.6%; the “MOR agonist activity ([35S]GTPgS binding to Gao)” value under setting [6] is reported as 204.0%.

For `CC(C)c1ccc(S(=O)(=O)N2CCC3(CC2)OCCN3S(=O)(=O)c2ccc(C(C)C)cc2)cc1` [Compound C0007], the “MOR agonist activity ([35S]GTPgS binding to Gao)” value runs as follows: under setting [5], 79.1%; (1 μM + BFNA, Series C-1 table) 10.9%; under setting [6], 195.0%.

Consider `N#Cc1ccc(S(=O)(=O)N2CCC3(CC2)OCCN3S(=O)(=O)c2ccc(C#N)cc2)cc1` [Compound C0008], for which the “MOR agonist activity ([35S]GTPgS binding to Gao)” value under setting [5] is reported as 71.2%; the “MOR agonist activity ([35S]GTPgS binding to Gao)” value (1 μM + BFNA, Series C-1 table) is 2.8%; the “MOR agonist activity ([35S]GTPgS binding to Gao)” value under setting [6] is listed as 201.6%.

Turning to `CS(=O)(=O)c1ccc(S(=O)(=O)N2CCC3(CC2)OCCN3S(=O)(=O)c2ccc(S(C)(=O)=O)cc2)cc1` [Compound C0009], the “MOR agonist activity ([35S]GTPgS binding to Gao)” value stood at 146.3% under setting [5]; 26.4% (1 μM + BFNA, Series C-1 table); 256.2% under setting [6].

Consider `O=S(=O)(c1ccc(-c2ccccc2)cc1)N1CCC2(CC1)OCCN2S(=O)(=O)c1ccc(-c2ccccc2)cc1` [Compound C0010], for which the “MOR agonist activity ([35S]GTPgS binding to Gao)” value by setting is: under setting [5], 136.5%; (1 μM + BFNA, Series C-1 table) 89.1%; under setting [6], 307.0%.

As to `CC(=O)c1ccc(S(=O)(=O)N2CCC3(CC2)OCCN3S(=O)(=O)c2ccc(C(C)=O)cc2)cc1` [Compound C0011], the “MOR agonist activity ([35S]GTPgS binding to Gao)” value by setting is: under setting [5], 217.0%; under setting [1], 217.0%; (1 μM + BFNA, Series C-1 table) 19.0%; (1 μM + BFNA, Series C-2 table) 19.0%; under setting [6], 305.0%; under setting [2], 305.0%.

For the compound `O=S(=O)(c1ccc(C(F)(F)F)cc1)N1CCC2(CC1)OCCN2S(=O)(=O)c1ccc(C(F)(F)F)cc1` [Compound C0012], the “MOR agonist activity ([35S]GTPgS binding to Gao)” value by setting is: under setting [5], 96.8%; (1 μM + BFNA, Series C-1 table) 184.4%; under setting [6], 224.8%.

As to `CC(=O)Nc1ccc(S(=O)(=O)N2CCC3(CC2)OCCN3S(=O)(=O)c2ccc(NC(C)=O)cc2)cc1` [Compound C0013], the “MOR agonist activity ([35S]GTPgS binding to Gao)” value came to 156.6% under setting [5]; 39.6% (1 μM + BFNA, Series C-1 table); 301.2% under setting [6].

Regarding `Cc1cccc(S(=O)(=O)N2CCC3(CC2)OCCN3S(=O)(=O)c2cccc(C)c2)c1` [Compound C0014], the “MOR agonist activity ([35S]GTPgS binding to Gao)” value stood at 144.9% under setting [5]; 76.3% (1 μM + BFNA, Series C-1 table); 153.5% under setting [6].

`Cc1ccccc1S(=O)(=O)N1CCC2(CC1)OCCN2S(=O)(=O)c1ccccc1C` [Compound C0015]: the “MOR agonist activity ([35S]GTPgS binding to Gao)” value runs as follows: under setting [5], 138.7%; (1 μM + BFNA, Series C-1 table) 126.8%; under setting [6], 204.7%.

`O=S(=O)(c1ccccc1)N1CCC2(CC1)OCCN2S(=O)(=O)c1ccccc1` [Compound C0016]: the “MOR agonist activity ([35S]GTPgS binding to Gao)” value reads like this: under setting [5], 172.7%; (1 μM + BFNA, Series C-1 table) 96.7%; under setting [6], 230.5%.

`COc1ccc(C(=O)N2CCC3(CC2)OCCN3C(=O)c2ccc(OC)cc2)cc1` [Compound C0017]: the “MOR agonist activity ([35S]GTPgS binding to Gao)” value by setting is: under setting [5], 153.8%; (1 μM + BFNA, Series C-1 table) 94.1%; under setting [6], 284.5%.

Regarding `COc1ccc(C(=O)N2CCC3(CC2)OCCN3S(=O)(=O)c2ccc(OC)cc2)cc1` [Compound C0018], the “MOR agonist activity ([35S]GTPgS binding to Gao)” value came out at 195.5% under setting [5]; 106.5% (1 μM + BFNA, Series C-1 table); 247.7% under setting [6].

`COc1ccc(C(=O)N2CCOC23CCN(S(=O)(=O)c2ccc(OC)cc2)CC3)cc1` [Compound C0019]: the “MOR agonist activity ([35S]GTPgS binding to Gao)” value amounted to 104.4% under setting [5]; 52.8% (1 μM + BFNA, Series C-1 table); 176.6% under setting [6].

Regarding `O=C(O)c1ccc(C(=O)N2CCC3(CC2)OCCN3S(=O)(=O)c2ccc(C(=O)O)cc2)cc1` [Compound C0021], the “MOR agonist activity ([35S]GTPgS binding to Gao)” value turned out to be 159.7% under setting [5]; 90.7% (1 μM + BFNA, Series C-1 table); 192.0% under setting [6].
